# Reference: ChEMBL document CHEMBL4837240 (J Med Chem, 2021)
# Calls of active or inactive are those of the source. No cut-off for these calls is given here.
# Key:
# [1] = system: MDA-MB-231; experiment: Antimigratory activity against human MDA-MB-231 cells assessed as reduction in cell migration incubated for 12 hrs by transwell assay; type: functional, cell-based
# [2] = target: Vascular endothelial growth factor receptor 2 (Homo sapiens, UniProt P35968); experiment: Inhibition of human KDR/VEGFR2 assessed as residual kinase activity at 1 uM relative to control
# [3] = Toxicity in BALB/c mouse xenografted with MDA-MB-231 cells assessed as ALT level in blood at 300 mg/kg, po; type: organism-based; conditions: in vivo
# [4] = AUC (0 to t) in Sprague-Dawley rat at 10 mg/kg, po by LC-MS analysis; type: ADME, organism-based; set-up: dose 10 mg/kg; conditions: in vivo
# [5] = system: MDA-MB-231; experiment: Inhibition of colony formation in human MDA-MB-231 cells at 2.5 uM incubated for 24 hrs by clonogenic assay; type: functional
# [6] = system: Mus musculus; experiment: Decrease in p-VEGFR3 level in BALB/c mouse xenografted with MDA-MB-231 cells in tumor tissue at 25 mg/kg, po by immunohistochemistry analysis; type: functional, organism-based
# [7] = system: Mus musculus; experiment: Decrease in Ki-67 level in BALB/c mouse xenografted with MDA-MB-231 cells in tumor tissue at 25 mg/kg, po by immunohistochemistry analysis; type: functional, organism-based
# [8] = system: Mus musculus; experiment: In vivo inhibition of VEGFR2 phosphorylation in BALB/c mouse xenografted with MDA-MB-231 cells at 25 mg/kg, po by immunohistochemistry analysis; type: functional, organism-based
# [9] = AUC (0 to infinity) in Sprague-Dawley rat at 1 mg/kg, iv by LC-MS analysis; type: ADME, organism-based; set-up: time infinity, route intravenous, dose 1 mg/kg; conditions: in vivo
# [10] = Toxicity in BALB/c mouse xenografted with MDA-MB-231 cells assessed as change in heart at 300 mg/kg, po by hematoxylin and eosin staining based analysis; type: organism-based; conditions: in vivo
# [11] = target: Tyrosine-protein kinase BTK (Homo sapiens, UniProt Q06187); experiment: Inhibition of human BTK
# [12] = system: MDA-MB-231; experiment: Induction of apoptosis in human MDA-MB-231 cells assessed as downregulation of Bcl2 expression up to 10 uM incubated for 24 hrs by Western blotting analysis; type: functional, cell-based; conditions: dose microM <=10, time 24.0 hrs
# [13] = AUC (0 to infinity) in Sprague-Dawley rat at 10 mg/kg, po by LC-MS analysis; type: ADME, organism-based; set-up: route oral, time infinity, dose 10 mg/kg; conditions: in vivo
# [14] = Toxicity in BALB/c mouse xenografted with MDA-MB-231 cells assessed as change in lung at 300 mg/kg, po by hematoxylin and eosin staining based analysis; type: organism-based; conditions: in vivo
# [15] = target: Vascular endothelial growth factor receptor 3 (Mus musculus) (UniProt P35917); experiment: In vivo inhibition of VEGFR3 phosphorylation in BALB/c mouse xenografted with MDA-MB-231 cells at 25 mg/kg, po by immunohistochemistry analysis; type: functional, organism-based
# [16] = system: MDA-MB-436; experiment: Induction of apoptosis in human MDA-MB-436 cells assessed as accumulation at G1 phase incubated for 48 hrs by flow cytometry; type: functional, cell-based
# [17] = system: MDA-MB-231; experiment: Induction of apoptosis in human MDA-MB-231 cells assessed as upregulation of caspase 3 up to 10 uM incubated for 24 hrs by Western blotting analysis; type: functional, cell-based; conditions: dose microM <=10, time 24.0 hrs
# [18] = target: T1, Vascular endothelial growth factor receptor 3 (Homo sapiens, UniProt P35916); experiment: Inhibition of VEGFR3 in human MDA-MB-436 cells assessed as inhibition of AKT phosphorylation at 2.5 uM incubated for 24 hrs by Western blot analysis; type: cell-based
# [19] = system: MDA-MB-436; experiment: Induction of apoptosis in human MDA-MB-436 cells assessed as downregulation of Bcl2 expression up to 10 uM incubated for 24 hrs by Western blotting analysis; type: functional, cell-based; conditions: dose microM <=10, time 24.0 hrs
# [20] = system: Mus musculus; experiment: Downregulation of MMP2 protein expression human MDA-MB-231 cells injected into vein of BALB/c mouse lung metastatic model at 50 mg/kg, po once a day measured on day 21 by […]; type: functional, organism-based
# [21] = Antiproliferative activity against VEGF-D-induced human dermal lymphatic endothelial cells assessed as cell viability incubated for 48 hrs by CCK-8 assay; type: functional, tissue-based; conditions: HDLEC
# [22] = AUC (0 to t) in Sprague-Dawley rat at 1 mg/kg, iv by LC-MS analysis; type: ADME, organism-based; set-up: dose 1 mg/kg; conditions: in vivo
# [23] = Half life in Sprague-Dawley rat at 10 mg/kg, po by LC-MS analysis; type: ADME, organism-based; conditions: in vivo
# [24] = target: Vascular endothelial growth factor receptor 3 (Mus musculus) (UniProt P35917); experiment: In vivo inhibition of VEGFR3 phosphorylation in BALB/c mouse xenografted with MDA-MB-231 cells assessed as decrease in STAT5 phosphorylation at 25 mg/kg, po by immunohistochemistry analysis; type: functional, organism-based
# [25] = Toxicity in BALB/c mouse xenografted with MDA-MB-231 cells assessed as uric acid level in blood at 300 mg/kg, po; type: organism-based; conditions: in vivo
# [26] = system: MDA-MB-231; experiment: Downregulation of MMP2 protein expression in human MDA-MB-231 cells up to 10 uM incubated for 24 hrs by Western blot analysis; type: functional, cell-based; conditions: dose microM <=10, time 24.0 hrs
# [27] = Cmax in Sprague-Dawley rat at 10 mg/kg, po by LC-MS analysis; type: ADME, organism-based; set-up: route oral, dose 10 mg/kg; conditions: in vivo
# [28] = system: MDA-MB-436; experiment: Induction of apoptosis in human MDA-MB-436 cells assessed as cleaved caspase 3 up to 10 uM incubated for 24 hrs by Western blotting analysis; type: functional, cell-based; conditions: dose microM <=10, time 24.0 hrs
# [29] = system: HDLEC; experiment: Anti-lymphangiogenic activity against human dermal lymphatic endothelial cells assessed as inhibition of VEGF-C-mediated tube formation at 100 nM incubated for 12 hrs by inverted microscopy; type: functional, tissue-based
# [30] = system: MDA-MB-231; experiment: Induction of apoptosis in human MDA-MB-231 cells assessed as increase in apoptotic cells incubated for 24 hrs by Hoechst 33258 staining under a fluorescence microscopy; type: functional, cell-based
# [31] = target: T1, Vascular endothelial growth factor receptor 3; experiment: Inhibition of human FLT4/VEGFR3 assessed as residual kinase activity at 1 uM relative to control
# [32] = system: MDA-MB-231; experiment: Upregulation of E-cadherin protein expression in human MDA-MB-231 cells up to 10 uM incubated for 24 hrs by Western blot analysis; type: functional, cell-based; conditions: dose microM <=10, time 24.0 hrs
# [33] = target: T1, Vascular endothelial growth factor receptor 3; experiment: Inhibition of VEGFR3 phosphorylation in human MDA-MB-231 cells at 2.5 uM incubated for 24 hrs by Western blot analysis; type: cell-based
# T1 sequence (P35916 whole entry): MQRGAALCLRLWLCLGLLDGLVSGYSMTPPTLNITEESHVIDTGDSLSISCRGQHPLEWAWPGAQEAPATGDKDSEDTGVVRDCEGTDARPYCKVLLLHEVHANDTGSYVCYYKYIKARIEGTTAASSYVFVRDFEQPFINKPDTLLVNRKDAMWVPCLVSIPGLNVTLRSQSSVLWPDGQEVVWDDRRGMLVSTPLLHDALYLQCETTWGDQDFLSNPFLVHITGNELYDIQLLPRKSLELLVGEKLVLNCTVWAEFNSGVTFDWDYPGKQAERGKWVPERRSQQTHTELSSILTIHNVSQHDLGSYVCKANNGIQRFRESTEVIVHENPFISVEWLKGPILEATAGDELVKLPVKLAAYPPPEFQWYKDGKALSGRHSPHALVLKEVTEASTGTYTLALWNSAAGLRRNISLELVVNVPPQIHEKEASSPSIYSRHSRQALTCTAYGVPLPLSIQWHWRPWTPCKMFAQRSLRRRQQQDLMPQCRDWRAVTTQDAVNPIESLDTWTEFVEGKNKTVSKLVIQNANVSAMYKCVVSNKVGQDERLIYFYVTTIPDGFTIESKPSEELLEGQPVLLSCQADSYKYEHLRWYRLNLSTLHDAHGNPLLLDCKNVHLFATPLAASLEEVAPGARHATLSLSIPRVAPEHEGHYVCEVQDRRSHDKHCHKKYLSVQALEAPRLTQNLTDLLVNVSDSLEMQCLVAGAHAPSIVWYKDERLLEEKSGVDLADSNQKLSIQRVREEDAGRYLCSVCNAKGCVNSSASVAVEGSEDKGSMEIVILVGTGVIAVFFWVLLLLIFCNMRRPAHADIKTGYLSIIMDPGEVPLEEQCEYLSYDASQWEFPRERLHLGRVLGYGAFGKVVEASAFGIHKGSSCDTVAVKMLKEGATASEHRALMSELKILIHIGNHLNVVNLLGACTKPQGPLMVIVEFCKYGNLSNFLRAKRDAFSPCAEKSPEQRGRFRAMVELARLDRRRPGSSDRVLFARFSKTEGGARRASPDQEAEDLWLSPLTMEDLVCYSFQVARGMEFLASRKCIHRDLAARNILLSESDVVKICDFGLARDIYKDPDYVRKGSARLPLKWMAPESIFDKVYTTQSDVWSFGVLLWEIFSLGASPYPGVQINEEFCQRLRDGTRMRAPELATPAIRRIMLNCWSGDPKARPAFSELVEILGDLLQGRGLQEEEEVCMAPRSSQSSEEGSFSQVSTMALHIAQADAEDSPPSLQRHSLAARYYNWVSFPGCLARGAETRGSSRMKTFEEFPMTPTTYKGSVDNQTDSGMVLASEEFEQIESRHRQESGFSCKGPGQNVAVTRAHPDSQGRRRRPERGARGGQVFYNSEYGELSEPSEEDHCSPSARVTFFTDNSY
# Chain of Vascular endothelial growth factor receptor 3 (Mus musculus) (P35917 whole entry): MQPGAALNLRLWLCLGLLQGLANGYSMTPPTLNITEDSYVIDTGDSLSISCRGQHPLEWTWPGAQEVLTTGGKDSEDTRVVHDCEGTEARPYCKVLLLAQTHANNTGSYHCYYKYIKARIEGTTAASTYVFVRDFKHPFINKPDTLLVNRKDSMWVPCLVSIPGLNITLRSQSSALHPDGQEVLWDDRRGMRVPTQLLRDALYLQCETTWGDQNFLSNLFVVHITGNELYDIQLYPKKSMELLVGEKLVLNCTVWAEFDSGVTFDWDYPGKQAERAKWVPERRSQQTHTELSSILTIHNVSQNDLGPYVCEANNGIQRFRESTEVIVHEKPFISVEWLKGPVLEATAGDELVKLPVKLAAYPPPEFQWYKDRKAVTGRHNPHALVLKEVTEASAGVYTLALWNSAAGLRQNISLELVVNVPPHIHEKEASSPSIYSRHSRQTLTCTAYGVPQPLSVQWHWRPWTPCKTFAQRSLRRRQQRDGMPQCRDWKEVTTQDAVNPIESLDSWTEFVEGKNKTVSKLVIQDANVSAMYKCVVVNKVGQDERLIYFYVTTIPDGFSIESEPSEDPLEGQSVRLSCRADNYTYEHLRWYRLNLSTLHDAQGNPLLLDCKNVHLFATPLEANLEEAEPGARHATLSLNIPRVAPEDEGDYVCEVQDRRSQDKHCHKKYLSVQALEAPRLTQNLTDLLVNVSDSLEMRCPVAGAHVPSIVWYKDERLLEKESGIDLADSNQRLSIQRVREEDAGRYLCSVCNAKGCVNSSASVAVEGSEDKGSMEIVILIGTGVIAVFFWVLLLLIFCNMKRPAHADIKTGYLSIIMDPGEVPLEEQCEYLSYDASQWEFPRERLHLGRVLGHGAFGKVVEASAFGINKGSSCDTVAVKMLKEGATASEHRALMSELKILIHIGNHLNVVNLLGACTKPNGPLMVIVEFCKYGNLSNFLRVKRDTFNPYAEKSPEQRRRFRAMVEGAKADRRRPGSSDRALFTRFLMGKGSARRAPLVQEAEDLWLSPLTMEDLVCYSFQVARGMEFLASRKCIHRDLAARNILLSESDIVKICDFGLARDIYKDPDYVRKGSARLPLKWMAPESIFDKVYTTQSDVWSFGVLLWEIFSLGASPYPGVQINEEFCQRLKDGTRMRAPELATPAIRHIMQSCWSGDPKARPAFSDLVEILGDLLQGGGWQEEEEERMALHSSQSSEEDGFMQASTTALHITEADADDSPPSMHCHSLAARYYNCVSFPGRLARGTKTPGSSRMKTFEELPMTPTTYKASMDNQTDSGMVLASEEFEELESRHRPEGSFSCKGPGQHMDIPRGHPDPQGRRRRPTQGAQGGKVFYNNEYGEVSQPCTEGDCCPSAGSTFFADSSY
# Chain of Vascular endothelial growth factor receptor 2 (P35968 whole entry): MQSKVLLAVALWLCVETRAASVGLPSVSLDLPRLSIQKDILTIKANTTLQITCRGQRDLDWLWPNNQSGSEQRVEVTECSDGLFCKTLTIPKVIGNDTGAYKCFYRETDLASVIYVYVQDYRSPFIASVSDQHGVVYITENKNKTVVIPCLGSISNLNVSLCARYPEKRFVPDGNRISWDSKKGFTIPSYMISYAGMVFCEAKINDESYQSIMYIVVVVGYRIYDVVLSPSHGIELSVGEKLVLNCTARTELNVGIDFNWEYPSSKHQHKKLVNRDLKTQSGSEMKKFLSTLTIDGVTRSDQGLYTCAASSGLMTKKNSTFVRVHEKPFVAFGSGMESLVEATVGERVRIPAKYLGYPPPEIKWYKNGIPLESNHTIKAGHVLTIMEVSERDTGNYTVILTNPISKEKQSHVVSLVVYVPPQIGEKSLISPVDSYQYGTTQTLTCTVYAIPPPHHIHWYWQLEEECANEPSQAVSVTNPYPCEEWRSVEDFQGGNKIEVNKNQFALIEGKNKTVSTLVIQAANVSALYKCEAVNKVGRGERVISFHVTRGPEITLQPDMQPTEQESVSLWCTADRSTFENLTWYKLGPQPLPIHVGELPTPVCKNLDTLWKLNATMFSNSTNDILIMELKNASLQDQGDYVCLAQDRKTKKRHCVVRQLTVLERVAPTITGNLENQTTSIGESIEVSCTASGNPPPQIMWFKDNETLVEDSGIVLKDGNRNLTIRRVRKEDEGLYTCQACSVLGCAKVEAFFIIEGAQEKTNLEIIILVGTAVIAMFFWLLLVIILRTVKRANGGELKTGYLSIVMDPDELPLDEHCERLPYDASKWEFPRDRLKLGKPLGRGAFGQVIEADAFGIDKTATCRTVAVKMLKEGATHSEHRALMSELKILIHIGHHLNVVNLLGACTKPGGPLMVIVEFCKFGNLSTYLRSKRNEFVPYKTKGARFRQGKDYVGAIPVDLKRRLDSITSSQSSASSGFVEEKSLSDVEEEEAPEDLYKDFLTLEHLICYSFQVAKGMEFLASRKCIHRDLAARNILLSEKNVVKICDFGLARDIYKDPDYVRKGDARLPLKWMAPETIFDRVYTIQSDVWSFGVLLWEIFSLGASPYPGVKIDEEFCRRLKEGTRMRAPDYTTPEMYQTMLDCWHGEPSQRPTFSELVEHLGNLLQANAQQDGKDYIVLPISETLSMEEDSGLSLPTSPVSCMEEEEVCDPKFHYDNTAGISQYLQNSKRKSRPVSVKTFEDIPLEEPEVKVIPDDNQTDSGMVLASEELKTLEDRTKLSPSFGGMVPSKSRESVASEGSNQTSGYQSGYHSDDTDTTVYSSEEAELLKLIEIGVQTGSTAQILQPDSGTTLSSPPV
# Chain of Tyrosine-protein kinase BTK (Q06187 whole entry): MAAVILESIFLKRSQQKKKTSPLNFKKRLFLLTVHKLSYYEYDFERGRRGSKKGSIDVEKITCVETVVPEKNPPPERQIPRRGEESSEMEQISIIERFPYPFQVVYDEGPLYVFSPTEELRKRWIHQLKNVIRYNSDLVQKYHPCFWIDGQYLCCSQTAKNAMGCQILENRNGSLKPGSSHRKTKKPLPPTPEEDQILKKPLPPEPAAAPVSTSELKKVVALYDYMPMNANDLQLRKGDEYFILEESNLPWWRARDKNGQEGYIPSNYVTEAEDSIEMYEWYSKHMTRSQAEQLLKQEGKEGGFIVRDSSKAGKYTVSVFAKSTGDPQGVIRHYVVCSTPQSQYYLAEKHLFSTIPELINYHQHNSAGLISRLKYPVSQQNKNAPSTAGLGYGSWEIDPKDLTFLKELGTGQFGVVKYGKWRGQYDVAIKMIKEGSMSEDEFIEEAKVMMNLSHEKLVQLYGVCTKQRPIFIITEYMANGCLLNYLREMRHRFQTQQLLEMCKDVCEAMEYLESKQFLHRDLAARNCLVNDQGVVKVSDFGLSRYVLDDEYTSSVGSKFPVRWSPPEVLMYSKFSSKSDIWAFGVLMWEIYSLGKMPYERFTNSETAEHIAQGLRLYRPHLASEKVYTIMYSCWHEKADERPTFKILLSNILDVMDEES
structure (smiles),measurement,setting,value
CN1CCN(c2ccc(-c3cc4c(N5CCN(C(=O)Nc6ccc(Cl)c(C(F)(F)F)c6)CC5)ncnc4s3)cc2)CC1,Activity,[1],Active
same,Activity,[2],85%
same,Activity,[3],Non-Toxic
same,AUC(0-t),[4],9220 ng·h/mL
same,inhibition at 2.5 µM,[5],100%
same,Activity,[6],Active
same,Activity,[7],Active
same,Activity,[8],inactive
same,AUC(0-inf),[9],3480 ng·h/mL
same,Activity,[10],Non-Toxic
same,IC50,[11],718 nM
same,Activity,[12],Active
same,AUC(0-inf),[13],12300 ng·h/mL
same,Activity,[14],Non-Toxic
same,Activity,[15],Active
same,Activity,[16],Dose-Dependent Effect
same,Activity,[17],Active
same,inhibition,[18],Active
same,Activity,[19],Active
same,Activity,[20],Active
same,IC50,[21],680 nM
same,AUC(0-t),[22],2570 ng·h/mL
same,half-life,[23],960 min
same,Activity,[24],Active
same,Activity,[25],Non-Toxic
same,Activity,[26],Active
same,Cmax,[27],420 ng/mL
same,Activity,[28],Active
same,Activity,[29],Active
same,Activity,[30],Dose-Dependent Effect
same,Activity,[31],0%
same,Activity,[32],Active
same,inhibition,[33],Active
